From patent US12404304B1, “Telomerase reverse transcriptase (TERT) expression enhancing compounds and methods for using the same” (Sierra Sciences, LLC, priority 2007, dated 2025)

What was measured:
[1] = system: human TERT expression (hTERT mRNA); test: Quantitative real-time RT-PCR of hTERT mRNA expression (Ct, transcripts) in compound-treated cells; type: cell-based; details: quantitative real-time RT-PCR
Excerpt: Telomerase is a ribonucleoprotein complex composed of the catalytic protein subunit (human telomerase reverse transcriptase or hTERT) and the RNA template. hTERT expression level can be measured by PCR.
Briefly, amplification of the target sequence is monitored per PCR cycle by detecting the fluorescence signal emitted by an internal probe that is degraded by the 5′ nuclease activity of the Taq polymerase. The emission signal accumulates in each sample, and the Ct required to reach a given fluorescence threshold is determined (Ct stands for Cycle Threshold and is a measure of the number of PCR cycles that are required to amplify a target—thus, a lower Ct score means that there is more abundant hTERT mRNA). Thus, the Ct value of a sample inversely correlates to the quantity of the starting cDNA which correlates to the number of mRNA transcripts. Using the cDNA of known quantity, a standard curve can be generated and used to determine the starting amount of mRNA transcripts based on the […] of each sample.
Quantitative real-time PCR can be done on cDNA from test compound-treated and nontreated cells by use of a ABI Prism 7900 Sequence Detection System (PE Applied Biosystems, Foster City, CA) following the Assays-on-Demand protocol (PE Applied Biosystems, Foster City, CA). Quantitative data can be analyzed using the Sequence Detection System software version 2.1 (PE Applied Biosystems).
The following compounds were tested in assays designed to identify compounds that enhance human TERT expression.

[2] = system: viable cells in culture; test: Cell viability assay (CellTiter-Glo Luminescent Cell Viability Assay, ATP quantitation, percent of vehicle control)

SMILES | Average Number of hTERT Transcripts [1] | Average Cell Viability after 24 Hours (% DMSO) [2]
O=c1c2c([nH]c3c(-c4ccc(Cl)cc4)cnn13)CCC2 [compound 1160] | 54.13 | 59.19 % DMSO
O=c1c(-c2ccccc2)c[nH]c2c(-c3ccccc3)cnn12 [compound 1161] | 139.82 | 62.93 % DMSO
Cc1nn2c(=O)cc(-c3ccccc3)[nH]c2c1-c1ccccc1 [compound 1162] | 113.08 | 65.07 % DMSO
Cc1nn2c(=O)cc(CSc3nnnn3-c3ccccc3)[nH]c2c1-c1ccc(Cl)cc1 [compound 1163] | 68.40 | 70.88 % DMSO
Cc1nn2c(=O)cc(-c3ccccc3Cl)[nH]c2c1-c1ccccc1 [compound 1164] | 56.66 | 71.68 % DMSO
Cc1nn2c(=O)c(Cc3ccc(Br)cc3)c(C)[nH]c2c1-c1ccccc1 [compound 1165] | 132.12 | 55.73 % DMSO
Cc1nn2c(=O)c(Cc3cccc(Cl)c3)c(C)[nH]c2c1-c1ccccc1 [compound 1166] | 152.34 | 77.99 % DMSO
CCCCc1c(C)[nH]c2c(-c3ccc(Cl)cc3)c(C)nn2c1=O [compound 1167] | 66.71 | 97.27 % DMSO
Cc1ccc(SCc2cc(=O)n3nc(C)c(-c4ccc(F)cc4)c3[nH]2)cc1 [compound 1168] | 79.80 | 63.67 % DMSO
Cc1nn2c(=O)cc(-c3ccc(F)cc3)[nH]c2c1-c1ccccc1 [compound 1169] | 122.92 | 56.42 % DMSO
COc1ccc2sc(Nc3nc(C)n(-c4ccccc4)c(=O)n3)nc2c1 [compound 1170] | 102.53 | 36.74 % DMSO
O=C(Nc1nc(-c2ccccn2)cs1)c1ccc(Br)s1 [compound 1171] | 22.66 | 56.61 % DMSO
COc1cc(OC)cc(C(=O)Nc2nc(-c3ccccn3)cs2)c1 [compound 1172] | 28.72 | 88.81 % DMSO
O=C(Nc1nc(-c2ccccn2)cs1)c1cccc(S(=O)(=O)N2CCOCC2)c1 [compound 1173] | 43.63 | 86.99 % DMSO
O=C(Nc1nc(-c2ccccn2)cs1)c1cccc(S(=O)(=O)N2CCCCC2)c1 [compound 1174] | 12.12 | 73.06 % DMSO
CCCN(CCC)S(=O)(=O)c1cccc(C(=O)Nc2nc(-c3ccccn3)cs2)c1 [compound 1175] | 29.54 | 74.43 % DMSO
COc1ccc(-c2nnc(NC(=O)c3ccc(Cl)cc3)o2)cc1 [compound 1178] | 63.78 | 83.07 % DMSO
O=C(NCCCn1ccnc1)c1cc(-c2ccc(F)cc2)on1 [compound 1179] | 3.70 | 97.79 % DMSO

SMILES | Average Number of hTERT Transcripts [1] | Average Cell Viability after 24 Hours (% DMSO) [2]
CCCNC(=O)c1cc(-c2ccc(F)cc2)on1 [compound 1180] | 56.10 | 81.47 % DMSO
CCCCNC(=O)c1cc(-c2ccc(F)cc2)on1 [compound 1181] | 24.74 | 85.44 % DMSO
C=CCNC(=O)c1cc(-c2ccc(F)cc2)on1 [compound 1182] | 19.03 | 87.44 % DMSO
O=C(NCCCN1CCOCC1)c1cc(-c2cccs2)on1 [compound 1183] | 37.61 | 88.76 % DMSO
O=C(NC1CCCC1)c1cc(-c2cccs2)on1 [compound 1184] | 73.49 | 88.36 % DMSO
O=C(NCCc1ccccc1)c1cc(-c2cccs2)on1 [compound 1185] | 20.89 | 80.02 % DMSO
O=C(NCCCn1ccnc1)c1cc(-c2cccs2)on1 [compound 1186] | 367.36 | 94.79 % DMSO
O=C(NCCN1CCOCC1)c1cc(-c2cccs2)on1 [compound 1187] | 61.19 | 95.94 % DMSO
CCCNC(=O)c1cc(-c2cccs2)on1 [compound 1188, 5-thiophen-2-yl-isoxazole-3-carboxylic acid propylamide] | 295.07 | 88.71 % DMSO
CC(C)CNC(=O)c1cc(-c2cccs2)on1 [compound 1189] | 73.15 | 83.26 % DMSO
CCCNC(=O)c1cc(-c2ccco2)on1 [compound 1190] | 41.79 | 96.27 % DMSO
CCCCNC(=O)c1cc(-c2ccco2)on1 [compound 1191] | 164.47 | 95.11 % DMSO
C=CCNC(=O)c1cc(-c2cccs2)on1 [compound 1192] | 279.74 | 95.64 % DMSO
COc1ccc(-c2n[nH]c3c2C(c2ccc(O)cc2)N(c2ccc(Br)cc2)C3=O)cc1 (stereo not drawn) [compound 1193] | 3.56 | 22.74 % DMSO
CCOC(=O)c1ccc(N2C(=O)c3[nH]nc(-c4ccccc4)c3C2c2ccccc2OC)cc1 (stereo not drawn) [compound 1194] | 6.20 | 76.71 % DMSO
Cc1cccnc1Nc1nc(-c2ccccn2)cs1 [compound 1195] | 220.50 | 95.66 % DMSO
COCCNC(=O)c1cc(-c2cccs2)on1 [compound 1196] | 163.15 | 98.07 % DMSO
CCCCNC(=O)c1cc(-c2cccs2)on1 [compound 1197] | 168.54 | 88.24 % DMSO
